Measured values taken from ChEMBL document CHEMBL6127092, “Comprehensive structural investigation of a potent and selective CXCR4 antagonist via crosslink modification” (Eur J Med Chem, 2024).
The source made the active and inactive calls. No cut-off for these calls is given here. Where a SMILES comes first, the peptide text is derived from it. Bridges are numbered along the chain shown (N, C = ends). Triazole bridges read from a SMILES are 1,4-linked. [ ]: non-standard residue; d: D form. 2Nal = N[C@@H](Cc1ccc2ccccc2c1)C(=O)O; Dap(N3) = [N-]=[N+]=NC[C@H](N)C(=O)O; Pra = C#CC[C@H](N)C(=O)O

How the values were obtained:
[1] = target: T1, C-X-C chemokine receptor type 4 (Homo sapiens, UniProt P61073); assay: Binding affinity to CXCR4 (unknown origin) overexpressed in human CCRF-CEM cells assessed as inhibition of ant-CXCR4 PE-antibody binding to receptor preincubated with compound for 45 mins followed by anti-CXCR4 PE-antibody addition and measured after 30 mins by flow cytometry based competitive binding assay; format: cell-based
[2] = Stability of compound in PBS at pH 7.4 assessed as parent compound remaining at 10 uM measured immediately in presence of GSH by RP-HPLC analysis; format: physicochemical; conditions: PBS with GSH, read-out: Stability
[3] = Stability of compound in PBS at pH 7.4 assessed as parent compound remaining at 10 uM measured after 1 hrs in presence of GSH by RP-HPLC analysis; format: physicochemical; conditions: PBS with GSH, read-out: Stability
[4] = Stability of compound in PBS at pH 7.4 assessed as parent compound remaining at 10 uM measured after 2 hrs in presence of GSH by RP-HPLC analysis; format: physicochemical; conditions: PBS with GSH, read-out: Stability
[5] = Stability of compound in PBS at pH 7.4 assessed as parent compound remaining at 10 uM measured after 4 hrs in presence of GSH by RP-HPLC analysis; format: physicochemical; conditions: PBS with GSH, read-out: Stability
[6] = Stability of compound in PBS at pH 7.4 assessed as parent compound remaining at 10 uM measured after 8 hrs in presence of GSH by RP-HPLC analysis; format: physicochemical; conditions: PBS with GSH, read-out: Stability
[7] = target: T1, C-X-C chemokine receptor type 4; assay: Antagonist activity at GFP-tagged CXCR4 (unknown origin) transfected in CHO cells assessed as inhibition of CXCL12-induced cytoplasmic translocation at 0.1 to 1 uM incubated with compound for 45 mins with subsequent CXCL12 addition and measured at 30 to 90 mins by DAPI staining based fluorescence microscopic analysis; format: cell-based; conditions: filed as antagonist, dose 0.1-1 µM, time 30-90 min
[8] = target: T1, C-X-C chemokine receptor type 4; assay: Agonist activity at GFP-tagged CXCR4 (unknown origin) transfected in CHO cells assessed as induction of internalization at 0.1 to 1 uM incubated with compound for 45 mins and measured at 30 to 90 mins by DAPI staining based fluorescence microscopic analysis; format: functional, cell-based; conditions: dose 0.1-1 µM, time 30-90 min
[9] = target: T1, C-X-C chemokine receptor type 4; assay: Agonist activity at CXCR4 (unknown origin) transfected in human CCRF-CEM cells assessed as induction of internalization at 0.1 uM incubated for 45 mins by flow cytometric analysis; format: functional, cell-based
[10] = target: T1, C-X-C chemokine receptor type 4; assay: Antagonist activity at CXCR4 (unknown origin) transfected in human CCRF-CEM cells assessed as inhibition of CXCL12-induced internalization at 0.1 to 1 uM preincubated for 45 mins followed by CXCL12 addition and measured after 30 mins by flow cytometric analysis; format: cell-based; conditions: filed as antagonist, dose 0.1-1 µM, time 75.0 min
CCRF-CEM [11] = assay: Inhibition of CXCL12-mediated cell migration in human CCRF-CEM cells expressing CXCR4 at 0.01 uM incubated for 6 hrs by DAPI staining based fluorescence microscopic analysis; format: functional
CCRF-CEM [12] = assay: Inhibition of CXCL12-mediated cell migration in human CCRF-CEM cells expressing CXCR4 incubated for 6 hrs by DAPI staining based fluorescence microscopic analysis; format: functional; conditions: dose 0.01-10 µM
[13] = target: Atypical chemokine receptor 3 (Homo sapiens) (UniProt P25106); assay: Binding affinity to CXCR7 (unknown origin) overexpressed in human MCF7 cells upto 10 uM preincubated for 45 mins followed by anti-CXCR7-APC antibody addition and measured after 30 mins by flow cytometric analysis; format: cell-based; conditions: time 75.0 min
[14] = target: T1, C-X-C chemokine receptor type 4; assay: Displacement of [125I]-CXCL12 from CXCR4 (unknown origin) overexpressed in human CCRF-CEM cells incubated for 1 hrs by gamma-counter; format: cell-based
CCRF-CEM [15] = assay: Inhibition of CXCL12-mediated cell migration in human CCRF-CEM cells expressing CXCR4 at 0.01 to 10 uM incubated for 6 hrs by DAPI staining based fluorescence microscopic analysis; format: functional; conditions: dose 0.01-10 µM
[16] = target: T1, C-X-C chemokine receptor type 4; assay: Agonist activity at CXCR4 (unknown origin); format: functional

T1 sequence (P61073 whole entry): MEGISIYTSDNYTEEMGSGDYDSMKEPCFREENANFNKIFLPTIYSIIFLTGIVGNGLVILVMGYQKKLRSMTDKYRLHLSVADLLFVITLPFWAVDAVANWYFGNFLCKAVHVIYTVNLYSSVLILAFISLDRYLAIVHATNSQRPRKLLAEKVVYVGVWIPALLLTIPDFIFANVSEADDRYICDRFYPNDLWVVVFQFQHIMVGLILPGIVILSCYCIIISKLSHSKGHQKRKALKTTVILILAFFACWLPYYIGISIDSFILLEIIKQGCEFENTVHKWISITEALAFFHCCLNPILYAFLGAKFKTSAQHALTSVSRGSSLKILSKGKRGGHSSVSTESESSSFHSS
Chain of Atypical chemokine receptor 3 (Homo sapiens) (P25106 whole entry): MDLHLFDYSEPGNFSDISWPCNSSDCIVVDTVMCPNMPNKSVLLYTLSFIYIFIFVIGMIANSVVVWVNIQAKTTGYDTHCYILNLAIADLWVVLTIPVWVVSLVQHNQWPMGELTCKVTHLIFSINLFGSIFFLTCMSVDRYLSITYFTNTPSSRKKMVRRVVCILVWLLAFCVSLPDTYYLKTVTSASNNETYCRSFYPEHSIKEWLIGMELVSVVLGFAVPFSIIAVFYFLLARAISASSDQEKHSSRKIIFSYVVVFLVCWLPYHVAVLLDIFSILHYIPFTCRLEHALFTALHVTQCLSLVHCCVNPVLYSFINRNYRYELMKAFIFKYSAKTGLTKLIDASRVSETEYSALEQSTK

In the case of CC(=O)N[C@@H](CCCNC(=N)N)C(=O)N[C@@H](C)C(=O)N[C@H]1CC(=O)NCCC[C@@H](C(=O)O)NC(=O)[C@H](Cc2c[nH]cn2)NC(=O)[C@H](Cc2ccc3ccccc3c2)NC(=O)[C@H](CCCNC(=N)N)NC1=O, the IC50 [1] is reported as greater than 10 nM.
With CC(=O)N[C@@H](CCCNC(=N)N)C(=O)N[C@@H](C)C(=O)N[C@H]1CCC(=O)NCC[C@@H](C(=O)O)NC(=O)[C@H](Cc2c[nH]cn2)NC(=O)[C@H](Cc2ccc3ccccc3c2)NC(=O)[C@H](CCCNC(=N)N)NC1=O the IC50 [1] was greater than 10 nM.
With CC(=O)N[C@@H](CCCNC(=N)N)C(=O)N[C@@H](C)C(=O)N[C@H]1CNC(=O)CC[C@@H](C(=O)O)NC(=O)[C@H](Cc2c[nH]cn2)NC(=O)[C@H](Cc2ccc3ccccc3c2)NC(=O)[C@H](CCCNC(=N)N)NC1=O the remaining at 0 h, 10 µM [2] was 100%, the remaining at 1 h, 10 µM [3] was 100% and the remaining at 2 h, 10 µM [4] was 100%. For the same compound, the remaining at 4 h, 10 µM [5] was 100%, the remaining at 8 h, 10 µM [6] was 100% and the Activity [7] was “Active”. The Activity [8] was “inactive”, the Activity [9] was “inactive” and the Activity [10] was “Active”. For the same compound, the inhibition (CCRF-CEM [11]) was “Active”, the inhibition (CCRF-CEM [12]) was “Dose-Dependent Effect” and the Activity [13] was “inactive”. For the same compound, the IC50 [1] was 7.8 nM and the IC50 [14] was 3.9 nM.
For CC(=O)N[C@@H](CCCNC(=N)N)C(=O)N[C@@H](C)C(=O)N[C@H]1Cn2cc(nn2)C[C@@H](C(=O)O)NC(=O)[C@H](Cc2c[nH]cn2)NC(=O)[C@H](Cc2ccc3ccccc3c2)NC(=O)[C@H](CCCNC(=N)N)NC1=O (Ac-RA[Dap(N3)]R[2Nal]H[Pra]-OH; triazole 3-7), the IC50 [14] was 36 nM.
With CC(=O)N[C@@H](CCCNC(=N)N)C(=O)N[C@@H](C)C(=O)N[C@@H]1CC(=O)NCCC[C@@H](C(=O)O)NC(=O)[C@H](Cc2c[nH]cn2)NC(=O)[C@H](Cc2ccc3ccccc3c2)NC(=O)[C@H](CCCNC(=N)N)NC1=O the IC50 [1] was 2020 nM.
CC(=O)N[C@@H](CCCNC(=N)N)C(=O)N[C@@H](C)C(=O)N[C@H]1CC(=O)NCCCC[C@@H](C(=O)O)NC(=O)[C@H](Cc2c[nH]cn2)NC(=O)[C@H](Cc2ccc3ccccc3c2)NC(=O)[C@H](CCCNC(=N)N)NC1=O showed an IC50 [1] greater than 10 nM.
With CC(=O)N[C@@H](CCCNC(=N)N)C(=O)N[C@@H](C)C(=O)N[C@@H]1CCC(=O)NCC[C@@H](C(=O)O)NC(=O)[C@H](Cc2c[nH]cn2)NC(=O)[C@H](Cc2ccc3ccccc3c2)NC(=O)[C@H](CCCNC(=N)N)NC1=O the IC50 [1] was 238 nM.
Compound CC(=O)N[C@@H](CCCNC(=N)N)C(=O)N[C@@H](C)C(=O)N[C@@H]1CNC(=O)C[C@@H](C(=O)O)NC(=O)[C@H](Cc2c[nH]cn2)NC(=O)[C@H](Cc2ccc3ccccc3c2)NC(=O)[C@H](CCCNC(=N)N)NC1=O has an IC50 [1] of 3600 nM.
CC(=O)N[C@@H](CCCNC(=N)N)C(=O)N[C@@H](C)C(=O)N[C@@H]1CCC(=O)NCCC[C@@H](C(=O)O)NC(=O)[C@H](Cc2c[nH]cn2)NC(=O)[C@H](Cc2ccc3ccccc3c2)NC(=O)[C@H](CCCNC(=N)N)NC1=O showed an IC50 [1] greater than 10 nM.
With CC(=O)N[C@@H](CCCNC(=N)N)C(=O)N[C@@H](C)C(=O)N[C@H]1CNC(=O)C[C@@H](C(=O)O)NC(=O)[C@H](Cc2c[nH]cn2)NC(=O)[C@H](Cc2ccc3ccccc3c2)NC(=O)[C@H](CCCNC(=N)N)NC1=O the IC50 [1] was 143 nM.
Work on CC(=O)N[C@@H](CCCNC(=N)N)C(=O)N[C@@H](C)C(=O)N[C@@H]1CC(=O)NC[C@@H](C(=O)O)NC(=O)[C@H](Cc2c[nH]cn2)NC(=O)[C@H](Cc2ccc3ccccc3c2)NC(=O)[C@H](CCCNC(=N)N)NC1=O yielded an IC50 [1] of 3150 nM.
CC(=O)N[C@@H](CCCNC(=N)N)C(=O)N[C@@H](C)C(=O)N[C@@H]1CCC(=O)NCCCC[C@@H](C(=O)O)NC(=O)[C@H](Cc2c[nH]cn2)NC(=O)[C@H](Cc2ccc3ccccc3c2)NC(=O)[C@H](CCCNC(=N)N)NC1=O showed an IC50 [1] greater than 10 nM.
For CC(=O)N[C@@H](CCCNC(=N)N)C(=O)N[C@@H](C)C(=O)N[C@H]1CCC(=O)NCCC[C@@H](C(=O)O)NC(=O)[C@H](Cc2c[nH]cn2)NC(=O)[C@H](Cc2ccc3ccccc3c2)NC(=O)[C@H](CCCNC(=N)N)NC1=O, the IC50 [1] was greater than 10 nM.
For CC(=O)N[C@@H](CCCNC(=N)N)C(=O)N[C@@H](C)C(=O)N[C@@H]1CCC(=O)NC[C@@H](C(=O)O)NC(=O)[C@H](Cc2c[nH]cn2)NC(=O)[C@H](Cc2ccc3ccccc3c2)NC(=O)[C@H](CCCNC(=N)N)NC1=O, the IC50 [1] was 89 nM.
Work on CC(=O)N[C@@H](CCCNC(=N)N)C(=O)N[C@@H](C)C(=O)N[C@@H]1CC(=O)NCC[C@@H](C(=O)O)NC(=O)[C@H](Cc2c[nH]cn2)NC(=O)[C@H](Cc2ccc3ccccc3c2)NC(=O)[C@H](CCCNC(=N)N)NC1=O yielded an IC50 [1] of 710 nM.
CC(=O)N[C@@H](CCCNC(=N)N)C(=O)N[C@@H](C)C(=O)N[C@@H]1CC(=O)NCCCC[C@@H](C(=O)O)NC(=O)[C@H](Cc2c[nH]cn2)NC(=O)[C@H](Cc2ccc3ccccc3c2)NC(=O)[C@H](CCCNC(=N)N)NC1=O gave an IC50 [1] of 2570 nM.
In the case of CC(=O)N[C@@H](CCCNC(=N)N)C(=O)N[C@@H](C)C(=O)N[C@H]1CSSC(C)(C)[C@H](C(=O)O)NC(=O)[C@H](Cc2c[nH]cn2)NC(=O)[C@H](Cc2ccc3ccccc3c2)NC(=O)[C@H](CCCNC(=N)N)NC1=O, the Activity [7] is reported as “Active”, the Activity [8] is reported as “inactive” and the Activity [9] is reported as “inactive”. The Activity [10] was “Active”, the inhibition (CCRF-CEM [15]) was “Active” and the Activity [13] was “inactive”.
With CC(=O)N[C@@H](CCCNC(=N)N)C(=O)N[C@@H](C)C(=O)N[C@H]1CCC(=O)NCCCC[C@@H](C(=O)O)NC(=O)[C@H](Cc2c[nH]cn2)NC(=O)[C@H](Cc2ccc3ccccc3c2)NC(=O)[C@H](CCCNC(=N)N)NC1=O the IC50 [1] was greater than 10 nM.
CC(=O)N[C@@H](CCCNC(=N)N)C(=O)N[C@@H](C)C(=O)N[C@@H]1CSSC(C)(C)[C@@H](C(=O)O)NC(=O)[C@H](Cc2cnc[nH]2)NC(=O)[C@H](Cc2ccc3ccccc3c2)NC(=O)[C@H](CCCNC(=N)N)NC1=O showed a remaining at 0 h, 10 µM [2] of 100%, a remaining at 1 h, 10 µM [3] of 88% and a remaining at 2 h, 10 µM [4] of 79%. For the same compound, the remaining at 4 h, 10 µM [5] was 65%, the remaining at 8 h, 10 µM [6] was 52% and the IC50 [1] was 1.5 nM. The IC50 [14] was 15.2 nM.
Compound CC(=O)N[C@@H](CCCNC(=N)N)C(=O)N[C@@H](C)C(=O)N[C@H]1CC(=O)NC[C@@H](C(=O)O)NC(=O)[C@H](Cc2c[nH]cn2)NC(=O)[C@H](Cc2ccc3ccccc3c2)NC(=O)[C@H](CCCNC(=N)N)NC1=O has an IC50 [1] greater than 10 nM.
In the case of CC(=O)N[C@@H](CCCNC(=N)N)C(=O)N[C@@H](C)C(=O)N[C@H]1CC(=O)NCC[C@@H](C(=O)O)NC(=O)[C@H](Cc2c[nH]cn2)NC(=O)[C@H](Cc2ccc3ccccc3c2)NC(=O)[C@H](CCCNC(=N)N)NC1=O, the IC50 [1] is reported as 756 nM.
Work on CC(=O)N[C@@H](CCCNC(=N)N)C(=O)N[C@@H](C)C(=O)N[C@H]1CCC(=O)NC[C@@H](C(=O)O)NC(=O)[C@H](Cc2c[nH]cn2)NC(=O)[C@H](Cc2ccc3ccccc3c2)NC(=O)[C@H](CCCNC(=N)N)NC1=O yielded an IC50 [1] of 510 nM.
Compound CC(=O)N[C@@H](CCCNC(=N)N)C(=O)N[C@@H](C)C(=O)N[C@H]1Cc2cnnn2CC[C@@H](C(=O)O)NC(=O)[C@H](Cc2c[nH]cn2)NC(=O)[C@H](Cc2ccc3ccccc3c2)NC(=O)[C@H](CCCNC(=N)N)NC1=O has an IC50 [16] of 31 nM.
For CC(=O)N[C@@H](CCCNC(=N)N)C(=O)N[C@@H](C)C(=O)N[C@@H]1CNC(=O)CC[C@@H](C(=O)O)NC(=O)[C@H](Cc2c[nH]cn2)NC(=O)[C@H](Cc2ccc3ccccc3c2)NC(=O)[C@H](CCCNC(=N)N)NC1=O, the IC50 [1] was 810 nM.
